Reference: patent publication US20110294992A1, “METAL RESPONSIVE MRI-AGENTS” (The Regents of the University of California, priority 2010, published 2011)
Marks after values point to notes of the source that are not given here.

Experiment: Nuclear magnetic relaxation dispersion (NMRD) profiles, Solomon-Bloembergen-Morgan fit
Format: physicochemical
Conditions: copper free
Experimental: FIG. 9. ^1H Nuclear magnetic relaxation dispersion profiles of CG3 and CG3+Cu^+ acquired at 25° C. The solid lines represent the best fit profiles.
As a secondary, independent set of experiments to further probe the mechanisms of copper ion sensing by the CG contrast agents, we also performed nuclear magnetic relaxation dispersion (NMRD) measurements of these sensors in the absence and in the presence of copper ions using a field cycling relaxometer (FIG. 9). The profiles obtained were analyzed following Solomon-Bloembergen-Morgan theory^36-38 for the inner-sphere relaxivity and the Freed model^115 for the outer-sphere relaxivity, fixing the diffusion coefficient (D) at […], the distance between Gd^3+ and the inner sphere water protons (r) at 3.1 Å, and the inner sphere exchange lifetime (τM) at 160 ns, the reported value for the parent complex Gd^3+-DO3A. Profiles were obtained for all compounds in the copper-free state. Profiles in the presence of Cu^n+ were obtained for CG2-4 (Cu^+) and CG6 (Cu^2+).
In fact, the measured outer-sphere relaxivities were so low that, in order to obtain a reasonable fit, the distance of closest approach of outer-sphere water protons (a) was allowed to vary. The distances obtained for the CG complexes (4.2-4.8 Å) were markedly longer than what is observed for typical Gd^3+ contrast agents with greater water access (3.8-4 Å). These values correlate with the copper-free relaxivities of CG2-6; longer a values give lower relaxivities and shorter a values give higher relaxivities. For Cu^+-sensing agents CG2-4, the estimated change in q of 2 as determined by DIS measurements was also observed in the fitted NMRD data. In fact, any attempt to fit the observed NMRD profiles with q=1 led to very poor agreement between experimental and calculated values. The change in q of 1 for CG6 upon addition of Cu^2+ as determined by NMRD is consistent with the lower turn-on response observed with this complex compared to CG2-4. The reduced q modulation for CG6 relative to CG2-4 could indicate that the carboxylic acid moiety used for Cu^2+ binding also interacts with the Gd^3+ center in the Cu^2+-bound state. The fitted rotational correlation times (τR) for copper-bound CG complexes all fall within the range expected for Gd^3+ complexes with molecular weights of 700-800 D. τR values for copper-free CG2-6 were fixed to values close to their copper-bound analogues as fits of NMRD data for q=0 complexes are not sensitive to small changes in τR. The values of Δ^2 (average quadratic transient zero field splitting), τv (electronic correlation time), and τs0 (electronic relaxation time at zero field), which govern the electronic relaxation time, are relatively similar to each other. These NMRD values are closer to those of Gd^3+-DTPA than Gd^3+-DOTA, reflecting the asymmetry of CG2-6.^64

Question: Which “τs0 (electronic relaxation time at zero field)” value does the source give for `CCSCCN(CCSCC)Cc1cccc(CN2CCN(CC(=O)[O-])CCN(CC(=O)[O-])CCN(CC(=O)[O-])CC2)n1.[Gd+3]` [CG2] here?
Answer: 75.6 ps

Question: What about the “r1p 20 MHz 25° C.” value (0.5 mM, 20 mM HEPES pH 7) of the same compound?
Answer: 1.6 mM⁻¹ s⁻¹

Question: And the “a (distance of closest approach of outer-sphere water protons)” value (best-fit value)?
Answer: 4.7 ± 0.11 Å

Question: What about the “Δ^2 (average quadratic transient zero field splitting)” value (best-fit value) of the same compound?
Answer: 5.8 ± 1.1 10^19 s^−2

Question: And the “τv (electronic correlation time)” value (best-fit value)?
Answer: 19 ± 2.4 ps

Question: And the q (fixed in the fitting procedure)?
Answer: 0^c

Question: What about the “τR (rotational correlation time)” value (not experimentally determined, assumed equal to corresponding q ≠ 0 complex (CG5: average of the other complexes)) of the same compound?
Answer: 110^d ps
